Measurements published in the supplement of paper PMC9663587.

Experiments:
MGH312 = experiment: area over the GR curve, 72 h; higher = more effect;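 note: Dye Drop or Deep Dye Drop imaging of viable cells in 384-well plates (Hoechst nuclei, LIVE/DEAD dye), nine half-log doses, GR normalized to DMSO controls and time-zero plates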
EVSAT = experiment: area over the GR curve, 72 h; higher = more effect;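 note: Dye Drop or Deep Dye Drop imaging of viable cells in 384-well plates (Hoechst nuclei, LIVE/DEAD dye), nine half-log doses, GR normalized to DMSO controls and time-zero plates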
HCC1187 = experiment: area over the GR curve, 72 h; higher = more effect;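 note: Dye Drop or Deep Dye Drop imaging of viable cells in 384-well plates (Hoechst nuclei, LIVE/DEAD dye), nine half-log doses, GR normalized to DMSO controls and time-zero plates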
MDAMB175VII = experiment: area over the GR curve, 72 h; higher = more effect;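 note: Dye Drop or Deep Dye Drop imaging of viable cells in 384-well plates (Hoechst nuclei, LIVE/DEAD dye), nine half-log doses, GR normalized to DMSO controls and time-zero plates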
SKBR3 = experiment: area over the GR curve, 72 h; higher = more effect
HTERT_HME1 = experiment: area over the GR curve, 72 h; higher = more effect
CAL51 = experiment: area over the GR curve, 72 h; higher = more effect
T47D = experiment: area over the GR curve, 72 h; higher = more effect
PDX1206 = experiment: GRmax, 72 h; higher = less effect;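 note: breast cell lines in 384-well plates, nine doses across a 10^4 range, Dye Drop imaging of viable cells vs DMSO and time-zero plates, GR 0 means no net growth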
MCF10A (GM) = experiment: GRmax, 72 h; higher = less effect;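 note: breast cell lines in 384-well plates, nine doses across a 10^4 range, Dye Drop imaging of viable cells vs DMSO and time-zero plates, GR 0 means no net growth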

Compound	area over the GR curve (MGH312)	area over the GR curve (EVSAT)	area over the GR curve (HCC1187)	area over the GR curve (MDAMB175VII)	area over the GR curve (SKBR3)	area over the GR curve (HTERT_HME1)	area over the GR curve (CAL51)	area over the GR curve (T47D)	GRmax, 72 h (PDX1206)	GRmax, 72 h (MCF10A (GM))
CN1CC[C@H](c2c(O)cc(O)c3c(=O)cc(-c4ccccc4Cl)oc23)[C@H](O)C1 [Flavopiridol] (max 1 µM)	0.452 GR	0.157 GR	0.0933 GR	0.413 GR	0.342 GR	0.319 GR	0.242 GR	0.274 GR	-0.566 GR	-0.307 GR
CNCc1ccc(-c2[nH]c3cc(F)cc4c3c2CCNC4=O)cc1 [Rucaparib] (max 10 µM)	0.189 GR	0.0455 GR	-0.119 GR	0.136 GR	0.119 GR	0.121 GR	0.0888 GR	0.0635 GR	0.586 GR	0.882 GR
CC1(N)CCN(c2cnc(-c3cccc(Cl)c3Cl)c(N)n2)CC1 [SHP099] (max 10 µM)	-0.0302 GR	-0.0008 GR	-0.341 GR	0.238 GR	0.0253 GR	0.0778 GR	0.03 GR	0.0099 GR	0.7 GR	0.738 GR
CNc1nc(-c2ccc3c(N)n[nH]c3c2)cc(N2C[C@@H](C(=O)NC3CCCCC3)CC[C@H]2C)n1 (max 10 µM)	0.718 GR	0.257 GR	-0.283 GR	0.59 GR	0.318 GR	0.128 GR	0.0516 GR	0.394 GR	0.295 GR	0.857 GR
COc1cccc(OCCCN)c1-c1cc(Nc2cnc(C#N)cn2)n[nH]1	0.0934 GR	0.0022 GR	0.235 GR	0.245 GR	0.802 GR	0.596 GR	0.528 GR	0.18 GR	-0.497 GR	0.322 GR
CN(C)C/C=C/C(=O)Nc1ccc(C(=O)N2CCC[C@@H](Nc3ncc(Cl)c(-c4c[nH]c5ccccc45)n3)C2)cc1 [THZ531] (max 1 µM)	0.636 GR	0.0912 GR	0.129 GR	0.567 GR	0.545 GR	0.182 GR	0.0896 GR	0.229 GR	-0.312 GR	-0.28 GR
CCC(=O)Nc1ccc(C(=O)Nc2ccc(Nc3ncc4c(n3)N(C)c3ccc(C)cc3C(=O)N4C)cc2)cc1 [FMF-03-145-1]	1.28 GR	1 GR	1.51 GR	0.919 GR	0.464 GR	0.44 GR	0.394 GR	0.979 GR	0.128 GR	0.0984 GR
CN(C)C/C=C/C(=O)Nc1ccc(O[C@@H]2CCC[C@@H](Nc3ncc(Cl)c(-c4c[nH]c5ccccc45)n3)C2)cc1 [BSJ-01-175] (max 10 µM)	1.47 GR	0.637 GR	1.08 GR	1.21 GR	1.04 GR	0.955 GR	0.434 GR	0.537 GR	-0.936 GR	-0.356 GR
CN1CCN(C(=O)c2ccc3cc(CCNc4ncnc5ccc(C#N)cc45)ccc3c2)CC1 [senexin b] (max 10 µM)	0.418 GR	0.0803 GR	-0.306 GR	0.427 GR	0.172 GR	0.177 GR	0.119 GR	0.322 GR	0.223 GR	0.893 GR
CN(C)C/C=C/C(=O)Nc1ccc(C(=O)Nc2cccc(Nc3ncc(Cl)c(-c4c[nH]c5ccccc45)n3)c2)cc1 [THZ1] (max 1 µM)	0.97 GR	0.251 GR	0.71 GR	0.487 GR	0.673 GR	0.76 GR	0.161 GR	0.446 GR	-0.522 GR	-0.267 GR
C[C@@H]1COCCN1c1cc(C2([S@](C)(=N)=O)CC2)nc(-c2cc[nH]c3nccc2-3)n1 [AZD6738] (max 10 µM)	-0.22 GR	-0.0225 GR	0.249 GR	0.063 GR	0.335 GR	-0.0027 GR	0.103 GR	-0.205 GR	0.141 GR	0.226 GR
C=CC(=O)Nc1ccc(C(=O)Nc2[nH]nc3c2CN(C(=O)N[C@H](CN(C)C)c2ccccc2)C3(C)C)cc1 [YKL-5-124] (max 10 µM)	0.923 GR	0.911 GR	0.822 GR	0.989 GR	0.965 GR	0.889 GR	0.655 GR	0.872 GR	-0.513 GR	-0.141 GR
CCCCOc1c(C(=O)c2c(F)cc(C)cc2F)c[nH]c2nncc1-2 (max 10 µM)	0.628 GR	0.322 GR	0.203 GR	0.787 GR	0.541 GR	0.862 GR	0.226 GR	0.649 GR	0.123 GR	0.106 GR
CN(C)C(=O)c1cc2cnc(Nc3ccc(N4CCNCC4)cn3)nc2n1C1CCCC1 [LEE011/Ribociclib] (max 10 µM)	-0.0019 GR	0.12 GR	-0.0536 GR	0.8 GR	0.34 GR	0.365 GR	0.299 GR	0.668 GR	0.713 GR	0.519 GR
CO[C@@H](C)Cn1c(=O)n(C)c2cnc3ccc(-c4cncc(C(C)(C)O)c4)cc3c21 (max 10 µM)	1.21 GR	0.795 GR	0.303 GR	1.32 GR	0.824 GR	0.676 GR	0.631 GR	0.894 GR	-0.404 GR	0.0552 GR
CN(C)C/C=C/C(=O)Nc1ccc(C(=O)Nc2cccc(Nc3cc(-c4c[nH]c5ccccc45)ncn3)c2)cc1 [THZ-P1-2] (max 10 µM)	0.127 GR	0.127 GR	0.331 GR	0.458 GR	0.154 GR	0.107 GR	0.0155 GR	0.353 GR	0.857 GR	-0.164 GR
